# Measured values as given in ChEMBL document CHEMBL5226375, “Synthesis and Comprehensive in Vivo Activity Profiling of Olean-12-en-28-ol, 3β-Pentacosanoate in Experimental Autoimmune Encephalomyelitis: A Natural Remyelinating and Anti-Inflammatory Agent” (J Nat Prod, 2023).
# The source made the active and inactive calls. The rule behind the calls is not given here.
# Key:
# Mus musculus [1] = experiment: Anti-inflammatory activity against MOG35-55-induced experimental autoimmune encephalomyelitis C57BL/6 mouse model assessed as proportion of brain infiltrating cells expressing CD45+/CD11b/c high surface markers at 600 mg/kg/day, ig for 14 days starting from 12th day of immunization by flow cytometry (reference value: 87.7%); format: functional; settings: time 14 day
# Mus musculus [2] = experiment: Anti-inflammatory activity against MOG35-55-induced experimental autoimmune encephalomyelitis C57BL/6 mouse model assessed as reduction in serum Th1 cytokine level by measuring reduction in TNF-alpha level at 600 mg/kg/day, ig for 14 days starting from 12th day of immunization by ELISA; format: functional, organism-based; settings: time 14.0 day
# Mus musculus [3] = experiment: Anti-inflammatory activity against MOG35-55-induced experimental autoimmune encephalomyelitis C57BL/6 mouse model assessed as fold change in TGFB1 gene expression in brain at 600 mg/kg/day, ig for 14 days starting from 12th day of immunization by RT-qPCR analysis relative to control; format: functional; settings: time 14 day
# Mus musculus [4] = experiment: Anti-inflammatory activity against MOG35-55-induced experimental autoimmune encephalomyelitis C57BL/6 mouse model assessed as upregulation of MBP protein expression in brain at 300 to 600 mg/kg/day, ig for 14 days starting from 12th day of immunization by western blot analysis relative to control; format: functional; settings: dose 300-600 mg/kg/day, time 14 day
# Mus musculus [5] = experiment: Anti-inflammatory activity against MOG35-55-induced experimental autoimmune encephalomyelitis C57BL/6 mouse model assessed as increase in serum IL-4 level at 600 mg/kg/day, ig for 14 days starting from 12th day of immunization by ELISA; format: functional, organism-based; settings: time 14.0 day
# Mus musculus [6] = experiment: Anti-inflammatory activity against MOG35-55-induced experimental autoimmune encephalomyelitis C57BL/6 mouse model assessed as upregulation of PLP protein expression in brain at 300 to 600 mg/kg/day, ig for 14 days starting from 12th day of immunization by western blot analysis relative to control; format: functional; settings: dose 300-600 mg/kg/day, time 14 day
# Mus musculus [7] = experiment: Anti-inflammatory activity against MOG35-55-induced experimental autoimmune encephalomyelitis C57BL/6 mouse model assessed as fold change in STAT3 gene expression in brain at 300 mg/kg/day, ig for 14 days starting from 12th day of immunization by RT-qPCR analysis relative to control; format: functional; settings: time 14 day
# Mus musculus [8] = experiment: Anti-inflammatory activity against MOG35-55-induced experimental autoimmune encephalomyelitis C57BL/6 mouse model assessed as fold change in MBP gene expression in brain at 300 mg/kg/day, ig for 14 days starting from 12th day of immunization by RT-qPCR analysis relative to control; format: functional; settings: time 14 day
# Mus musculus [9] = experiment: Anti-inflammatory activity against MOG35-55-induced experimental autoimmune encephalomyelitis C57BL/6 mouse model assessed as reduction in serum chemokines level by measuring reduction in FASL level at 600 mg/kg/day, ig for 14 days starting from 12th day of immunization by ELISA; format: functional, organism-based; settings: time 14.0 day
# Mus musculus [10] = experiment: Anti-inflammatory activity against MOG35-55-induced experimental autoimmune encephalomyelitis C57BL/6 mouse model assessed as fold change in YWHAH gene expression in brain at 600 mg/kg/day, ig for 14 days starting from 12th day of immunization by RT-qPCR analysis relative to control; format: functional; settings: time 14 day
# Mus musculus [11] = experiment: Anti-inflammatory activity against MOG35-55-induced experimental autoimmune encephalomyelitis C57BL/6 mouse model assessed as fold change in HIF1A gene expression in brain at 600 mg/kg/day, ig for 14 days starting from 12th day of immunization by RT-qPCR analysis relative to control; format: functional; settings: time 14 day
# Mus musculus [12] = experiment: Anti-inflammatory activity against MOG35-55-induced experimental autoimmune encephalomyelitis C57BL/6 mouse model assessed as fold change in MMP9 gene expression in brain at 0.3 mg/kg/day, ig for 14 days starting from 12th day of immunization by RT-qPCR analysis relative to control; format: functional; settings: time 14 day
# Mus musculus [13] = experiment: Anti-inflammatory activity against MOG35-55-induced experimental autoimmune encephalomyelitis C57BL/6 mouse model assessed as reduction in serum […] cytokine level by measuring reduction in IL-17 level at 0.3 mg/kg/day, ig for 14 days starting from 12th day of immunization by ELISA; format: functional, organism-based; settings: time 14.0 day
# Mus musculus [14] = experiment: Anti-inflammatory activity against MOG35-55-induced experimental autoimmune encephalomyelitis C57BL/6 mouse model assessed as reduction in serum monokines level by measuring reduction in IL-6 level at 0.3 mg/kg/day, ig for 14 days starting from 12th day of immunization by ELISA; format: functional, organism-based; settings: time 14.0 day
# Mus musculus [15] = experiment: Anti-inflammatory activity against MOG35-55-induced experimental autoimmune encephalomyelitis C57BL/6 mouse model assessed as reduction in serum chemokines level by measuring reduction in CCL5 level at 0.3 mg/kg/day, ig for 14 days starting from 12th day of immunization by ELISA; format: functional, organism-based; settings: time 14.0 day
# Mus musculus [16] = experiment: Anti-inflammatory activity against MOG35-55-induced experimental autoimmune encephalomyelitis C57BL/6 mouse model assessed as methylation of CpG sites of IL11 gene promoter in brain at […], ig for 14 days starting from 12th day of immunization by PCR analysis (reference value: 61.1 +/-4%); format: functional; settings: time 14 day
# Mus musculus [17] = experiment: Anti-inflammatory activity against MOG35-55-induced experimental autoimmune encephalomyelitis C57BL/6 mouse model assessed as fold change in BCL2 gene expression in brain at 0.15 mg/kg/day, ig for 14 days starting from 12th day of immunization by RT-qPCR analysis relative to control; format: functional; settings: time 14 day
# Mus musculus [18] = experiment: Anti-inflammatory activity against MOG35-55-induced experimental autoimmune encephalomyelitis C57BL/6 mouse model assessed as fold change in MMP9 gene expression in brain at 0.15 mg/kg/day, ig for 14 days starting from 12th day of immunization by RT-qPCR analysis relative to control; format: functional; settings: time 14 day
# Mus musculus [19] = experiment: Anti-inflammatory activity against MOG35-55-induced experimental autoimmune encephalomyelitis C57BL/6 mouse model assessed as methylation of CpG sites of CXCL14 gene promoter in brain at […], ig for 14 days starting from 12th day of immunization by PCR analysis (reference value: 46.5 +/-6%); format: functional; settings: time 14 day
# Mus musculus [20] = experiment: Anti-inflammatory activity against MOG35-55-induced experimental autoimmune encephalomyelitis C57BL/6 mouse model assessed as fold change in H2EB1 (HLA-DRB1) gene expression in brain at 0.15 mg/kg/day, ig for 14 days starting from 12th day of immunization by RT-qPCR analysis relative to control; format: functional; settings: time 14 day
# Mus musculus [21] = experiment: Anti-inflammatory activity against MOG35-55-induced experimental autoimmune encephalomyelitis C57BL/6 mouse model assessed as fold change in CXCL9 gene expression in brain at 0.3 mg/kg/day, ig for 14 days starting from 12th day of immunization by RT-qPCR analysis relative to control; format: functional; settings: time 14 day
# Mus musculus [22] = experiment: Anti-inflammatory activity against MOG35-55-induced experimental autoimmune encephalomyelitis C57BL/6 mouse model assessed as fold change in TGFB1 gene expression in brain at 0.15 mg/kg/day, ig for 14 days starting from 12th day of immunization by RT-qPCR analysis relative to control; format: functional; settings: time 14 day
# Mus musculus [23] = experiment: Anti-inflammatory activity against MOG35-55-induced experimental autoimmune encephalomyelitis C57BL/6 mouse model assessed as reduction in serum Th1 cytokine level by measuring reduction in IL-2 level at 0.3 mg/kg/day, ig for 14 days starting from 12th day of immunization by ELISA; format: functional, organism-based; settings: time 14.0 day
compound,measurement,setting,value
CCCCCCCCCCCCCCCCCCCCCCCCC(=O)O[C@H]1CC[C@]2(C)[C@H]3CC=C4[C@@H]5CC(C)(C)CC[C@]5(CO)CC[C@@]4(C)[C@]3(C)CC[C@H]2C1(C)C,Activity,Mus musculus [1],66.2%
same,Activity,Mus musculus [2],Active
same,fold change (FC),Mus musculus [3],8.29
same,fold change (FC),Mus musculus [4],2
same,Activity,Mus musculus [5],Active
same,fold change (FC),Mus musculus [6],2
same,fold change (FC),Mus musculus [7],1.54
same,fold change (FC),Mus musculus [8],1.01
same,Activity,Mus musculus [9],Active
same,fold change (FC),Mus musculus [10],-1.78
same,fold change (FC),Mus musculus [11],1.77
CCCCCCCCc1ccc(CCC(N)(CO)CO)cc1 [FINGOLIMOD],fold change (FC),Mus musculus [12],4.44
same,Activity,Mus musculus [13],Active
same,Activity,Mus musculus [14],Active
same,Activity,Mus musculus [15],Active
same,Activity,Mus musculus [16],36.2%
same,fold change (FC),Mus musculus [17],2.24
same,fold change (FC),Mus musculus [18],2.43
same,Activity,Mus musculus [19],73.6%
same,fold change (FC),Mus musculus [20],3.85
same,fold change (FC),Mus musculus [21],-1.12
same,fold change (FC),Mus musculus [22],1.86
same,Activity,Mus musculus [23],Active
